According to patent US20220304978A1, “INHIBITING MESANGIAL CELL ACTIVATION” (Chinook Therapeutics, Inc., priority 2019, published 2022):
Positions of bridges follow the written chain, without caps; N, C: chain ends. No end group written: not given here.

System: IL-6 production in primary human mesangial cells
Test: ET-1 induced IL-6 production in HRMCs (ELISA)
Format: cell-based

## ET-1: endothelin 1 (ET-1), used to stimulate primary human mesangial cells (CSCSSLMDKECVYFCHLDIIW; disulfide 1-15, 3-11; ends not checked; UniProt P05305 53-73, looked up)
48 hours
  increase in IL-6 production by primary human mesangial cells exposed to ET-1: ~6 fold
72 hours
  increase in IL-6 production by primary human mesangial cells exposed to ET-1: ~2.2 fold
